The numbers were not newly measured in patent US8541371B2, “Treatment of conditions related to cecal ligation shock” (The Regents of The University of California, priority 2009, dated 2013), which cites them from elsewhere.

This data set has as its system shock. The following applies: shock patients, approved treatment.

Take drotrecogin alfa (activated) [XIGRIS]: the survival benefit entry is listed as “minor but confirmed survival benefit”.
